# Laboratory results reported in patent US9868746B2, “Substituted 5-aminothieno[2,3-C]pyridazine-6-carboxamide analogs as positive allosteric modulators of the muscarinic acetylcholine receptor M4” (Vanderbilt University, priority 2012, dated 2018).
# Where two headings read alike, the source gives them in different places.
# Biological target: T1, mAChR M4 (Homo sapiens, UniProt P08173)
# T1 construct: expressed in transfected cells; host or cells: CHO-K1 cells stably transfected with M4 cDNA and chimeric G-protein Gqi5
# T1 sequence (P08173 1-479): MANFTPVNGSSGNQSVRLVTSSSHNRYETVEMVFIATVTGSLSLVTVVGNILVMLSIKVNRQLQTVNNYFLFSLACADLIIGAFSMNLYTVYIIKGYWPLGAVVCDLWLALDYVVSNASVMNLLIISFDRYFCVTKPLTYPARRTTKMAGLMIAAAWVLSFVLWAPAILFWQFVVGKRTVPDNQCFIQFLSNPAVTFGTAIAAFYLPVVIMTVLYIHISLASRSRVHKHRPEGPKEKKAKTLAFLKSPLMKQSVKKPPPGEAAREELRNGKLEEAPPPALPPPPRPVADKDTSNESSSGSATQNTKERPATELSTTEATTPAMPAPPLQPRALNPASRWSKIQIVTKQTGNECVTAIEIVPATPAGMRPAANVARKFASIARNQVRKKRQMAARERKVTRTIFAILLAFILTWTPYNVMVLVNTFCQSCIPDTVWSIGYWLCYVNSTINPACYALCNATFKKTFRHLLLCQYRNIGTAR
# Experiment: mAChR M4 cell-based functional assay (calcium mobilization, potentiation of EC20 acetylcholine response)
# Conditions: for Emax at 30 µM: % ACh maximum at 30 μM
# [1] = mAChR M4 cell-based functional assay, >10,000 estimated for low potency compounds without plateau, read-out: EC50
Emax at 30 µM,EC50 [1],Compound,EC50 (EC50 (nM))
82%,460 nM,Cc1nnc2sc(C(=O)NCc3ccc(-c4cc(C)c5[nH]ncc5c4)cc3)c(N)c2c1C [Example B474],
61%,15 nM,Cc1nnc2sc(C(=O)NCc3ccc([S+]([O-])C(F)F)c(F)c3)c(N)c2c1C (stereo not drawn) [Example B465],
44%,400 nM,Cc1nnc2sc(C(=O)N3CC(F)(c4ccc(S(=O)(=O)CF)cc4)C3)c(N)c2c1C [Example B393],
71%,47 nM,CCc1ccc(CNC(=O)c2sc3nnc(C)c(C)c3c2N)cc1 [Example B395],
61%,20 nM,Cc1nnc2sc(C(=O)NCc3ccc(-n4ccnc4)cc3)c(N)c2c1C [Example B490],
45%,170 nM,Cc1nnc2sc(C(=O)N3CC4CN(c5ccc(C#N)cn5)CC4C3)c(N)c2c1C (stereo not drawn) [Example B438],
66%,580 nM,Cc1nnc2sc(C(=O)NCc3ccc(-c4ccsc4)cc3)c(N)c2c1C [Example B502],
53%,> 10000 nM,Cc1nnc2sc(C(=O)N3CC4CN(C(=O)C(C)(C)C)CC4C3)c(N)c2c1C (stereo not drawn) [Example B333],
67%,9 nM,Cc1ccc(OC(=O)N2CC(NC(=O)c3sc4nnc(C)c(C)c4c3N)C2)cc1 [Example B342],
72%,54 nM,Cc1nnc2sc(C(=O)NC3CN(C(=O)Oc4ccc(C(C)C)cc4)C3)c(N)c2c1C [Example B348],
59%,17 nM,COc1ccc(CNC(=O)c2sc3nnc(C)c(C)c3c2N)cc1Cl [Example B446],
42%,850 nM,Cc1nnc2sc(C(=O)N3CC(F)(c4cccnc4)C3)c(N)c2c1C [Example B308],
54%,98 nM,Cc1nnc2sc(C(=O)N3CC4CN(c5cccc(Br)n5)CC4C3)c(N)c2c1C (stereo not drawn) [Example B437],
67%,23 nM,Cc1nnc2sc(C(=O)NC3CN(c4ncc(Br)cn4)C3)c(N)c2c1C [Example B429],
70%,200 nM,Cc1nnc2sc(C(=O)NC3CN(C(=O)c4ccccc4F)C3)c(N)c2c1C [Example B396],
73%,130 nM,Cc1nnc2sc(C(=O)NCc3ccc(CN(C)C)cc3)c(N)c2c1C [Example B328],
55%,600 nM,Cc1nnc2sc(C(=O)NC3CN(C(=O)NCCCN4CCOCC4)C3)c(N)c2c1C [Example B337],
70%,150 nM,Cc1nnc2sc(C(=O)NCc3ccc(-c4ccc5occc5c4)cc3)c(N)c2c1C [Example B463],
54%,1700 nM,Cc1nnc2sc(C(=O)N3CC(S(C)(=O)=O)C3)c(N)c2c1C [Example B406],
40%,820 nM,Cc1nnc2sc(C(=O)N3CC(S(=O)(=O)c4ccc(F)cc4F)C3)c(N)c2c1C [Example B432],
61%,48 nM,COc1ccc(NC(=O)N2CC(NC(=O)c3sc4nnc(C)c(C)c4c3N)C2)cc1 [Example B371],
60%,390 nM,Cc1nnc2sc(C(=O)NCc3ccc(Br)cn3)c(N)c2c1C [Example B471],
43%,180 nM,Cc1nnc2sc(C(=O)N3CC(N=[N+]=[N-])(c4ccccc4)C3)c(N)c2c1C [Example B311],

# The next lines start with the compound.
Compound,Emax at 30 µM,EC50 [1],EC50 (EC50 (nM))
Cc1nnc2sc(C(=O)NC3CCN(C(=O)C4CC4)C3)c(N)c2c1C (stereo not drawn) [Example B242],79%,1300 nM,
Cc1nnc2sc(C(=O)NCc3ccc(C(C)S(C)(=O)=O)cc3)c(N)c2c1C (stereo not drawn) [Example B104],63%,150 nM,
Cc1nnc2sc(C(=O)NC3CCN(c4ccccc4OC(F)(F)F)C3)c(N)c2c1C (stereo not drawn) [Example B282],80%,220 nM,
CCCCCC(=O)NC1CCN(C(=O)c2sc3nnc(C)c(C)c3c2N)C1 (stereo not drawn) [Example B218],61%,5000 nM,
Nc1c(C(=O)NCc2cccc(F)c2)sc2nnccc12 [Example B21],59%,> 10000 nM,
Cc1nnc2sc(C(=O)N3CCC(NC(=O)OCc4ccccc4)C3)c(N)c2c1C (stereo not drawn) [Example B220],67%,830 nM,
Cc1nnc2sc(C(=O)NCc3ccc(N4CCCC4=O)cc3)c(N)c2c1C [Example B238],68%,130 nM,
Cc1nnc2sc(C(=O)NC3CCN(c4ccc(C(F)(F)F)cc4)C3)c(N)c2c1C (stereo not drawn) [Example B283],76%,180 nM,
Cc1nnc2sc(C(=O)NCc3ccc4ccccc4c3)c(N)c2c1C [Example B86],62%,80 nM,
Cc1nnc2sc(C(=O)N3CCC(NC(=O)C4CC4c4ccccc4)C3)c(N)c2c1C (stereo not drawn) [Example B254],65%,1400 nM,
Cc1nnc2sc(C(=O)NCc3ccc(S(=O)(=O)C(F)F)cc3)c(N)c2c1C [Example B117],66%,,18 nM
COc1ccc(S(=O)(=O)N2CC(NC(=O)c3sc4nnc(C)c(C)c4c3N)C2)cc1 [Example B144],87%,140 nM,
Cc1nnc2sc(C(=O)NC3CN(C(=O)OCc4ccccc4)C3)c(N)c2c1C [Example B124],58%,22 nM,
CCCCC1(F)CN(C(=O)c2sc3nnc(C)c(C)c3c2N)C1 [Example B307],55%,180 nM,
Cc1nnc2sc(C(=O)N3CCC(c4ccccc4)C3C)c(N)c2c1C (stereo not drawn) [Example B163],54%,240 nM,
COc1ccc(C2CC2NC(=O)c2sc3nnc4c(c3c2N)CCCC4)cc1 (stereo not drawn) [Example B55],48%,47 nM,
Cc1nnc2sc(C(=O)N3CC(F)(C4CCCCC4)C3)c(N)c2c1C [Example B296],67%,280 nM,
Cc1nnc2sc(C(=O)NC3CCN(S(C)(=O)=O)C3)c(N)c2c1C (stereo not drawn) [Example B252],83%,1700 nM,
Cc1nnc2sc(C(=O)NC3CN(S(=O)(=O)c4cccc5c4OCCC5)C3)c(N)c2c1C [Example B143],90%,120 nM,
Cc1nnc2sc(C(=O)NC3CN(Cc4ccc(F)cc4)C3)c(N)c2c1C [Example B46],38%,> 10000 nM,

Compound,Emax at 30 µM,EC50 [1],EC50 (EC50 (nM))
COc1ccc(C2CC2N(C)C(=O)c2sc3nnc(C)c(C)c3c2N)cc1 (stereo not drawn) [Example B79],35%,> 10000 nM,
Cc1nnc2sc(C(=O)NC3CN(C(=O)c4ccccn4)C3)c(N)c2c1C [Example B126],92%,290 nM,
Cc1nnc2sc(C(=O)NC3CN(S(=O)(=O)c4ccc(F)cc4F)C3)c(N)c2c1C [Example B146],82%,66 nM,
Cc1nnc2sc(C(=O)NCc3ccc4[nH]ccc4c3)c(N)c2c1C [Example B195],62%,65 nM,
Cc1nnc2sc(C(=O)NCc3ccc(F)c(S(C)(=O)=O)c3)c(N)c2c1C [Example B78],63%,230 nM,
Cc1nnc2sc(C(=O)NCc3ccc4c(c3)OCCO4)c(N)c2c1C [Example B29],76%,30 nM,
Cc1nnc2sc(C(=O)NC3CCN(C(=O)CC4CCCCC4)C3)c(N)c2c1C (stereo not drawn) [Example B241],64%,860 nM,
Cc1nnc2sc(C(=O)NC3CCN(C(=O)c4ccc(F)c(F)c4)C3)c(N)c2c1C (stereo not drawn) [Example B255],71%,430 nM,
Cc1nnc2sc(C(=O)N3CC(F)(c4cccc(F)c4)C3)c(N)c2c1C [Example B293],46%,150 nM,
Cc1cncc(NC(=O)c2sc3nnc(C)c(C)c3c2N)c1 [Example B71],31%,460 nM,
Cc1nnc2sc(C(=O)N3CC(NC(=O)C4CC4)C3)c(N)c2c1C [Example B166],41%,3100 nM,
COc1cccc(S(=O)(=O)N2CCC(NC(=O)c3sc4nnc(C)c(C)c4c3N)C2)c1 (stereo not drawn) [Example B214],73%,820 nM,
Cc1nnc2sc(C(=O)NCc3ccc(C(F)F)cc3)c(N)c2c1C [Example B260],81%,34 nM,
CCCCC1(OC)CN(C(=O)c2sc3nnc(C)c(C)c3c2N)C1 [Example B305],68%,870 nM,
COc1cccc(S(=O)(=O)NC2CCN(C(=O)c3sc4nnc(C)c(C)c4c3N)C2)c1 (stereo not drawn) [Example B213],65%,4500 nM,
Cc1nnc2sc(C(=O)N[C@H]3CCN(c4ccccc4)C3)c(N)c2c1C [Example B193],63%,14 nM,
Cc1ccc(S(=O)(=O)NC2CN(C(=O)c3sc4nnc(C)c(C)c4c3N)C2)cc1 [Example B183],47%,490 nM,
CCCCCC(=O)N1CC(NC(=O)c2sc3nnc(C)c(C)c3c2N)C1 [Example B152],85%,110 nM,
Cc1nnc2sc(C(=O)N3CC(NC(=O)c4ccncc4)C3)c(N)c2c1C [Example B184],48%,1900 nM,
COCCOc1ccc(CNC(=O)c2sc3nnc(C)c(C)c3c2N)cc1 [Example B233],78%,99 nM,
